In patent publication US20250236608A1, “EGFR INHIBITORS” (Blueprint Medicines Corporation, priority 2022, published 2025):
Counter-ions that a name gives are not always drawn.

Legend:
EGFR (d746-750) = EGFR (d746-750) (Homo sapiens (Human), UniProt P00533, DEL746-750); assay: Biochemical EGFR inhibition assay, EGFR (d746-750); conditions: Caliper mobility shift; 1.0 mM ATP or ATP Km; read-out: Enz EGFR_Exon19-del746-750 IC50
[1] = molecular target: pEGFR (Tyr1068) in PC-9 cells (Ex19Del) (Homo sapiens (Human), UniProt P00533, DEL746-750); assay: PC-9 pEGFR AlphaLISA assay; format: cell-based; conditions: 4 hours incubation, p-EGFR (Tyr1068) AlphaLISA, read-out: Ext pEGFR_PC-9 Ex19Del IC50
Summary of the method: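 Readout: AlphaLISA SureFire Ultra signal in cell lysates, with acceptor beads for 1.5-2 h and donor beads overnight at room temperature in the dark. Beforehand, unstimulated cells in 10% FBS medium received compounds (10 points, 4-fold steps) for 4 h at 37° C. IC50 came from percent inhibition curves.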

EGFR L858R = EGFR L858R (Homo sapiens (Human), UniProt P00533, L858R); assay: Biochemical EGFR inhibition assay, EGFR L858R; conditions: Caliper mobility shift; 1.0 mM ATP or ATP Km; read-out: Enz EGFR_L858R IC50
Sequence of EGFR L858R (P00533 25-1210 L858R): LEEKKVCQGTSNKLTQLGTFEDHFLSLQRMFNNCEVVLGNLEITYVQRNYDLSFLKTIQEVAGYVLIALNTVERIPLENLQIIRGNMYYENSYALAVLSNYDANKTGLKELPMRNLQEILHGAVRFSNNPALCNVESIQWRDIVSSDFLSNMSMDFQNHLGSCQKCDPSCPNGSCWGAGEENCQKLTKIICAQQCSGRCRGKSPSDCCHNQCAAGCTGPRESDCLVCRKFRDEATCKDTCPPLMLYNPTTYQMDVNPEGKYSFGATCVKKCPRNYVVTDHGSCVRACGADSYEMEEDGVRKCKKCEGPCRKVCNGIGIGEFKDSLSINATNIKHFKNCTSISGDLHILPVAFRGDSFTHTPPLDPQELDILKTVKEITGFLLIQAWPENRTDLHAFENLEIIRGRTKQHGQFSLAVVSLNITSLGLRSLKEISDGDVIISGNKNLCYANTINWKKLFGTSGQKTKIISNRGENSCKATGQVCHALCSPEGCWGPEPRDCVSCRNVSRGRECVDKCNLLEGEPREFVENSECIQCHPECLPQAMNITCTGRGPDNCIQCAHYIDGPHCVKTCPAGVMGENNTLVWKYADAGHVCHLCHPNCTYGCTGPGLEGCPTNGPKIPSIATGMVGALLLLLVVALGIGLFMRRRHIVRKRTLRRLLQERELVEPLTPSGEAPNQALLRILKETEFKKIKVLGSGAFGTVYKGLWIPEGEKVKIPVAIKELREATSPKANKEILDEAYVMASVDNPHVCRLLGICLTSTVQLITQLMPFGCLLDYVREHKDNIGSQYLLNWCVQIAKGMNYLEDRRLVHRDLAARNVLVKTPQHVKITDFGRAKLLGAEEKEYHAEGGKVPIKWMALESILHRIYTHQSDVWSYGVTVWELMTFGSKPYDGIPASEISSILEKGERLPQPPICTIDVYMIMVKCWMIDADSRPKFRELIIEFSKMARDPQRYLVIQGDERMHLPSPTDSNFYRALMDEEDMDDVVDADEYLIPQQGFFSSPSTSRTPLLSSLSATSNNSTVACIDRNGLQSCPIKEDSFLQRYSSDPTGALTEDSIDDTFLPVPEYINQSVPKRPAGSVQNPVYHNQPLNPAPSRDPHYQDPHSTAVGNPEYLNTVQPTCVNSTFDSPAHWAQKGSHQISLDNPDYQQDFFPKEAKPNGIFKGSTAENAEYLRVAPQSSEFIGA

Sequence of pEGFR (Tyr1068) in PC-9 cells (Ex19Del) (P00533 other isoform, or with tags, fused parts or gaps del 746-750): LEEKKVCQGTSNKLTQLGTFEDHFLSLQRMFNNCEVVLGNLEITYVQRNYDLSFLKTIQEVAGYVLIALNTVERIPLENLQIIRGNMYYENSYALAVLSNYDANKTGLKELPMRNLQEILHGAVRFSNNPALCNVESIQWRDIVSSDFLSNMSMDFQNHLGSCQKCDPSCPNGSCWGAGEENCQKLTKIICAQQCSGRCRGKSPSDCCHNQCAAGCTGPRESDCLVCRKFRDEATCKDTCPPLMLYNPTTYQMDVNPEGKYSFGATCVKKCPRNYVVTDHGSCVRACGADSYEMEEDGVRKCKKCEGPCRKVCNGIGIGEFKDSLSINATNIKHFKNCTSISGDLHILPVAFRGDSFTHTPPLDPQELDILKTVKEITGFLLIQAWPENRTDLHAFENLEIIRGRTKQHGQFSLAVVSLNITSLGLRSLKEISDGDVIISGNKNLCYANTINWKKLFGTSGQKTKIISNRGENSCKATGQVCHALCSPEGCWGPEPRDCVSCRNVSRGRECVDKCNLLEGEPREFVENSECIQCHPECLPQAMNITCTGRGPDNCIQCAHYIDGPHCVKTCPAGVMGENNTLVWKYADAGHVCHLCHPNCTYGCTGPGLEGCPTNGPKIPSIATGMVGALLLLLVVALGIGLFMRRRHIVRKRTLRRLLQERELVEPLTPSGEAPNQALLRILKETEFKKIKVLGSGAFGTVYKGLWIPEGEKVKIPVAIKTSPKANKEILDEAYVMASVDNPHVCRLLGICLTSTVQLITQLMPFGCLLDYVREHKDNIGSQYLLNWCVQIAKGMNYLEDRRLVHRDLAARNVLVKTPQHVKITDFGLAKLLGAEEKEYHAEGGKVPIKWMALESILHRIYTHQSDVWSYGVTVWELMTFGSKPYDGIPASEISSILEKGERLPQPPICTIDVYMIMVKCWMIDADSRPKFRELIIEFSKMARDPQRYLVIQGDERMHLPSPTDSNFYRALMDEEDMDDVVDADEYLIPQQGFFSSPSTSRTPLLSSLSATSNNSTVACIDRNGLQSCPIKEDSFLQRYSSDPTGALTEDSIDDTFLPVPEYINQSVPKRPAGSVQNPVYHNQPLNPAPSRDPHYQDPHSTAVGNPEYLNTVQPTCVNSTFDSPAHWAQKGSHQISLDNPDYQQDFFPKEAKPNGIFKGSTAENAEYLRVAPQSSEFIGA
Sequence of EGFR (d746-750) (P00533 other isoform, or with tags, fused parts or gaps del 1-694/del 746-750 limits assumed): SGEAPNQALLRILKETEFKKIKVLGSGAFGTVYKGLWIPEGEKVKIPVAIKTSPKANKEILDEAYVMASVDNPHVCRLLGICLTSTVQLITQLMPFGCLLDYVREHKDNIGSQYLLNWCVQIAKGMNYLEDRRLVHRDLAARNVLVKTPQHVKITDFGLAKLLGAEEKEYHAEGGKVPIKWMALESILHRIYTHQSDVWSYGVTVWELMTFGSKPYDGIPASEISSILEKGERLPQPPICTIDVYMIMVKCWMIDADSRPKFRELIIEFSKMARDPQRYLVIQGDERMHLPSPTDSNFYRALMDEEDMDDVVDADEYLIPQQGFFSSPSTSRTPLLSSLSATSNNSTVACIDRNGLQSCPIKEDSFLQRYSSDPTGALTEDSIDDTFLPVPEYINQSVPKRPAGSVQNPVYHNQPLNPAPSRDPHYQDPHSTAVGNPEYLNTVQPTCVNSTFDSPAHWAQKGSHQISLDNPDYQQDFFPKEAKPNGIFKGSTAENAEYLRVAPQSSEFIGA

IC50 (EGFR (d746-750)) | IC50 [1] | IC50 (EGFR L858R) | Compound
1.1 nM | 4.5 nM | 2.3 nM | COc1cc2ncnc(-c3cn(C)nc3-c3ccccc3)c2cc1NC(=O)c1ccnnc1 [Example 328, N-(7-methoxy-4-(1-methyl-3-phenyl-1H-pyrazol-4-yl)quinazolin-6-yl)pyridazine-4-carboxamide]
0.7 nM | 0.9 nM | 1.3 nM | COc1cc2ncnc(-c3cn(C)nc3-c3ccccc3)c2nc1NC(=O)C1(C(F)F)CC1 [Example 369, 1-(difluoromethyl)-N-(7-methoxy-4-(1-methyl-3-phenyl-1H-pyrazol-4-yl)pyrido[3,2-d]pyrimidin-6-yl)cyclopropane-1-carboxamide]
0.6 nM | 0.7 nM | 0.9 nM | C[C@H](O)c1cc2c(-c3cn(CC(F)F)nc3-c3ccccc3)ncnc2cc1-c1cnn(C)c1 (single isomer, unassigned) [Example 446, (S)-1-(4-(1-(2,2-difluoroethyl)-3-phenyl-1H-pyrazol-4-yl)-7-(1-methyl-1H-pyrazol-4-yl)quinazolin-6-yl)ethan-1-ol or (R)-1-(4-(1-(2,2-difluoroethyl)-3-phenyl-1H-pyrazol-4-yl)-7-(1-methyl-1H-pyrazol-4-yl)quinazolin-6-yl)ethan-1-ol]
7.4 nM | 22 nM | 60.4 nM | CN(C)C12CC(C(=O)Nc3nc4c(-c5cn(C)nc5-c5ccccc5F)ncnc4cc3OC(F)F)(C1)C2 [Example 468, N-[7-(difluoromethoxy)-4-[3-(2-fluorophenyl)-1-methyl-1H-pyrazol-4-yl]pyrido[3,2-d]pyrimidin-6-yl]-3-(dimethylamino) bicyclo[1.1.1]pentane-1-carboxamide]
0.9 nM | 0.5 nM | 1.6 nM | COc1cc2ncnc(-c3cn(C4CC4)nc3-c3ccccc3)c2nc1NC(=O)C1(C(F)(F)F)CC1 [Example 367, N-(4-(1-cyclopropyl-3-phenyl-1H-pyrazol-4-yl)-7-methoxypyrido[3,2-d]pyrimidin-6-yl)-1-(trifluoromethyl)cyclopropane-1-carboxamide]
0.9 nM | 1.6 nM | 1.6 nM | COc1cc2c(-c3cn(C)nc3-c3ccccc3)ncnc2cc1N1CC2(CN(C(C)=O)C2)C1 [Example 447, 1-(6-(6-methoxy-4-(1-methyl-3-phenyl-1H-pyrazol-4-yl)quinazolin-7-yl)-2,6-diazaspiro[3.3]heptan-2-yl)ethan-1-one]
1.7 nM | 2.5 nM | 2.4 nM | COc1cc2ncnc(-c3cn(C)nc3-c3ccccc3)c2cc1NC(=O)C[C@H]1CCCO1 [Example 280, (R)—N-(7-methoxy-4-(1-methyl-3-phenyl-1H-pyrazol-4-yl)quinazolin-6-yl)-2-(tetrahydrofuran-2-yl) acetamide]
47.3 nM | 636 nM | 70.7 nM | [2H]C([2H])([2H])n1ncc(-c2ncnc3cc(OC)c(NC(=O)C4(C(F)(F)F)CC4)nc23)c1-c1ccccc1 [Example 492]
76.3 nM | 1210 nM | 121 nM | COc1cc2ncnc(-c3cnn(C(F)(F)F)c3-c3ccccc3)c2cc1NC(=O)C12CC(C1)C2 [Example 485, N-(7-methoxy-4-(5-phenyl-1-(trifluoromethyl)-1H-pyrazol-4-yl)quinazolin-6-yl)bicyclo[1.1.1]pentane-1-carboxamide]
1 nM | 0.8 nM | 1.7 nM | COc1cc2ncnc(-c3cn(C)nc3-c3ccccc3)c2cc1NC(=O)[C@@H]1CCN(C)C[C@H]1F (racemic) [Example 339, trans-rac-(3R,4R)-3-fluoro-N-(7-methoxy-4-(1-methyl-3-phenyl-1H-pyrazol-4-yl)quinazolin-6-yl)-1-methylpiperidine-4-carboxamide trifluoroacetate]
1 nM | 1.2 nM | 1.8 nM | COc1cc2ncnc(-c3cn(C)nc3-c3ccc(F)cc3)c2cc1NC(=O)c1scnc1C [Example 304, N-(4-(3-(4-fluorophenyl)-1-methyl-1H-pyrazol-4-yl)-7-methoxyquinazolin-6-yl)-4-methylthiazole-5-carboxamide]
1.9 nM | 2.7 nM | 7.6 nM | CCc1ccc(-c2cc3c(-c4cn(C)nc4-c4ccccc4)ncnc3cc2OC)c2c[nH]nc12 [Example 472, 6-(7-ethyl-2H-indazol-4-yl)-7-methoxy-4-(1-methyl-3-phenyl-1H-pyrazol-4-yl)quinazoline]

The next lines start with the compound.

Compound | IC50 (EGFR (d746-750)) | IC50 [1] | IC50 (EGFR L858R)
COc1cc2ncnc(-c3cn(C)nc3-c3ccccc3)c2cc1O[C@H]1CN(C)C[C@@H]1F [Example 6, 6-(((3S,4S)-4-fluoro-1-methylpyrrolidin-3-yl)oxy)-7-methoxy-4-(1-methyl-3-phenyl-1H-pyrazol-4-yl)quinazoline] | 1.7 nM | 3.5 nM | 2.3 nM
COc1cc2ncnc(-c3cn(CC(F)F)nc3-c3ccccc3)c2cc1C1(O)CCOCC1 [Example 127, 4-(4-(1-(2,2-difluoroethyl)-3-phenyl-1H-pyrazol-4-yl)-7-methoxyquinazolin-6-yl)tetrahydro-2H-pyran-4-ol] | 1.4 nM | 2.6 nM | 2.6 nM
COc1cc2ncnc(-c3cn(C)nc3-c3ccccc3)c2cc1NC(=O)C1CC(OC)C1 (stereo not drawn) [Example 215, 3-methoxy-N-(7-methoxy-4-(1-methyl-3-phenyl-1H-pyrazol-4-yl)quinazolin-6-yl)cyclobutane-1-carboxamide] | 1.6 nM | 1.1 nM | 2.7 nM
CCOc1cc2ncnc(-c3cn(C)nc3-c3ccccc3)c2cc1OC(=O)N1CCO[C@H](C)C1 [Example 73, 7-ethoxy-4-(1-methyl-3-phenyl-1H-pyrazol-4-yl)quinazolin-6-yl (R)-2-methylmorpholine-4-carboxylate] | 1.6 nM | 11.1 nM | 2.9 nM
COc1cc2ncnc(-c3cn(C4COC4)nc3-c3ccccc3)c2cc1OC(=O)N1CCOC[C@@H]1C [Example 68, 7-methoxy-4-(1-(oxetan-3-yl)-3-phenyl-1H-pyrazol-4-yl)quinazolin-6-yl (S)-3-methylmorpholine-4-carboxylate] | 2.7 nM | 3 nM | 6.3 nM
COc1cc2ncnc(-c3cn(C)nc3-c3ccccc3)c2nc1O[C@H](C)c1cnnn1C [Example 41, (R)-7-methoxy-6-(1-(1-methyl-1H-1,2,3-triazol-5-yl)ethoxy)-4-(1-methyl-3-phenyl-1H-pyrazol-4-yl)pyrido[3,2-d]pyrimidine] | 4.1 nM | 9.2 nM | 8.3 nM
COc1cc2ncnc(-c3cn(CC(F)F)nc3-c3ccccc3)c2cc1O[C@@H]1CCN(C)C[C@H]1F [Example 3, 4-(1-(2,2-difluoroethyl)-3-phenyl-1H-pyrazol-4-yl)-6-(((3R,4R)-3-fluoro-1-methylpiperidin-4-yl)oxy)-7-methoxyquinazoline] | 1.5 nM | 0.3 nM | 2.4 nM
COc1cc2ncnc(-c3cn(C)nc3-c3ccccc3)c2cc1CO [Example 119, (7-methoxy-4-(1-methyl-3-phenyl-1H-pyrazol-4-yl)quinazolin-6-yl)methanol] | 2.1 nM | 13.6 nM | 3.9 nM
COc1cc2ncnc(-c3cn(C)nc3-c3ccccc3)c2cc1NC(=O)C1(CN(C)C)CC1 [Example 189, 1-((dimethylamino)methyl)-N-(7-methoxy-4-(1-methyl-3-phenyl-1H-pyrazol-4-yl)quinazolin-6-yl)cyclopropane-1-carboxamide] | 1.9 nM | 4.3 nM | 4 nM
COCCOc1cc2ncnc(-c3cn(CC(F)F)nc3-c3ccccc3)c2cc1OC [Example 16, 4-(1-(2,2-difluoroethyl)-3-phenyl-1H-pyrazol-4-yl)-6-methoxy-7-(2-methoxyethoxy)quinazoline] | 1.2 nM | 2.1 nM | 1.8 nM
COc1cc2ncnc(-c3cn(C)nc3-c3ccccc3)c2cc1O[C@@H]1CCOC1 [Example 12, (R)-7-methoxy-4-(1-methyl-3-phenyl-1H-pyrazol-4-yl)-6-((tetrahydrofuran-3-yl)oxy)quinazoline] | 1.3 nM | 5.6 nM | 2.8 nM
COc1cc2ncnc(-c3cn(C)nc3-c3ccccc3)c2nc1O[C@H](C)c1cn(C)nn1 [Example 43, (R)-7-methoxy-6-(1-(1-methyl-1H-1,2,3-triazol-4-yl)ethoxy)-4-(1-methyl-3-phenyl-1H-pyrazol-4-yl)pyrido[3,2-d]pyrimidine] | 0.8 nM | 1.9 nM | 1.4 nM
C[C@H](O)c1cc2c(-c3cn(CC(F)F)nc3-c3ccccc3)ncnc2cc1O[C@H]1CCOC1 (single isomer, unassigned) [Example 117, (S)-1-(4-(1-(2,2-difluoroethyl)-3-phenyl-1H-pyrazol-4-yl)-7-(((S)-tetrahydrofuran-3-yl)oxy)quinazolin-6-yl)ethan-1-ol or (R)-1-(4-(1-(2,2-difluoroethyl)-3-phenyl-1H-pyrazol-4-yl)-7-(((S)-tetrahydrofuran-3-yl)oxy)quinazolin-6-yl)ethan-1-ol] | 0.6 nM | 3.4 nM | 1.9 nM
